Experimental data from patent publication US12264134B2 (Merck Sharp & Dohme LLC, priority 2018, dated 2025).

Biological target: IDO1 (Homo sapiens, UniProt P14902)
Experiment: IDO1 Cellular Assay in HeLa Cells Stimulated with IFNγ
Assay type: cell-based
Details: read-out: HeLa Cell Potency, IC50
Experimental: IDO1 Cellular Assay in HeLa Cells Stimulated with IFNγ
HeLa cells were cultured in complete HeLa culture medium (90% EMEM, 10% heat-inactivated fetal bovine serum) and expanded to about 1×10^9 cells. The cells were then collected and frozen down at 1×10^7 cells/vial in 1 mL frozen medium (90% complete HeLa culture medium, 10% DMSO).
Compounds to be tested were serially diluted in ten 3-fold steps in DMSO starting from 10 mM DMSO stocks in Echo low volume plate(s). Compound dilutions or DMSO alone were then dispensed from the dilution plate(s) into Greiner black 384-well assay plate(s) (catalog #781086, 50 nL/well) using an Echo 550 acoustic liquid handler (Labcyte).
Frozen HeLa cells were thawed and transferred into HeLa assay medium (99% complete HeLa culture medium, 1% Pen/Strep) with 20 mL medium/vial of cells. The cells were spun down at 250 g in a table top centrifuge for 5 min and suspended in same volume of HeLa assay medium. The cells were then counted and adjusted to a density of 2×10^5 cells/mL in HeLa assay medium. Sterile L-tryptophan were added to the cells with final concentration of 300 uM L-tryptophan. A small aliquot (2 mL/plate) of HeLa cells were set aside and were not treated with IFNγ, to serve as the Max-E control.
HeLa cells with and without IFNγ were dispensed to the respective wells of 384-well assay plates containing the compounds. The plates were incubated for about 48 hours at a 37° C., 5% CO2 incubator. Afterwards, 12 μL of 0.5 M methyl isonipecotate in dimethyl sulfoxide were added into each well and the plates were sealed and incubated at 37° C. without CO2 overnight. The plates were centrifuged for 1 min at 200×g. The resulting fluorescence was measured in a Spectramax plate reader (Molecular Devices) with a 400 nm excitation filter and a 510 nm emission filter.
The fluorescence intensity of each well was corrected for the background observed in wells with non-IFNγ-treated cells and was expressed as a fraction of the intensity observed in wells of IFNγ-treated cells and DMSO only. Potencies were calculated by linear least squares fit to the four parameter logistic IC50 equation.

Chain of IDO1 (P14902 whole entry): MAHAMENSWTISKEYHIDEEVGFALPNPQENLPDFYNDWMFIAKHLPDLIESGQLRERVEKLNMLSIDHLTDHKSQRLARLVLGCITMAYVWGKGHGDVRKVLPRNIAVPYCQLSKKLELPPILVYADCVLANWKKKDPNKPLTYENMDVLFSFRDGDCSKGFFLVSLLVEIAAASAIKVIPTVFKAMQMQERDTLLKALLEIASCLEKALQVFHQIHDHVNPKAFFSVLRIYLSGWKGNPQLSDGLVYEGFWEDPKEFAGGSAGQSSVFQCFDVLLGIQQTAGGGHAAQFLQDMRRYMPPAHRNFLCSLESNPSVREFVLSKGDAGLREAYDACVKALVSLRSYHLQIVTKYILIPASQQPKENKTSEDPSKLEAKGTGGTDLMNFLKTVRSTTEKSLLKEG

| IC50 | SMILES |
| --- | --- |
| 0.59 nM | CC(=O)NC1CCN(C(=O)c2nn(CC(=O)N3CCN(c4cccc(C)c4Cl)CC3)c3c2CCCC3)CC1 [Example 453, N-(1-(1-(2-(4-(2-chloro-3-methylphenyl)piperazin-1-yl)-2-oxoethyl)-4,5,6,7-tetra hydro-1H-indazole-3-carbonyl)piperidin-4-yl) acetamide] |
| 17.1 nM | Cc1cccc(N2CCN(C(=O)Cn3nc(C(=O)N4CC5(CO)CC4C5)c4c3CCC4)CC2)c1C [Example 301, 1-[4-(2,3-dimethylphenyl)piperazin-1-yl]-2-{3-[4-(hydroxymethyl)-2-azabicyclo[2.1.1]hexane-2-carbonyl]-5,6-dihydrocyclopenta[c]pyrazol-1(4H)-yl}ethan-1-one] |
| 47.6 nM | Cc1cccc(N2CCN(C(=O)Cn3nc(C(=O)N4CCN(C(=O)CO)CC4)c4c3C[C@H]3C[C@@H]43)C(C(F)F)C2)c1C (stereo partly drawn) [Example 389] |
| 75.7 nM | Cc1cccc(N2CCN(C(=O)Cn3nc(C(=O)N4CC[C@H](O)[C@@H](F)C4)c4c3CC(O)C4)CC2)c1C (single isomer, unassigned) [Example 416] |
| 381 nM | Cc1cccc(N2CCN(C(=O)Cn3nc(C(=O)N4CC[C@H](O)[C@@H](F)C4)c4c3CC(O)C4)CC2)c1C (mixture of isomers) [Example 414, 1-(4-(2,3-dimethylphenyl)piperazin-1-yl)-2-(3-((3 S,4S)-3-fluoro-4-hydroxypiperidine-1-carbonyl)-5-hydroxy-5,6-dihydrocyclopenta[c]pyrazol-1 (4H)-yl)ethanone] |
| 1.18 nM | Cc1c(Cl)cccc1N1CCN(C(=O)Cn2nc(C(=O)N3CCC(O)C(C)C3)c3c2C[C@H]2C[C@@H]32)CC1 (stereo in doubt) [Example 353, 1-(4-(3-chloro-2-methylphenyl)piperazin-1-yl)-2-((3bR,4aR)-3-((3R,4S)-4-hydroxy-3-methylpiperidine-1-carbonyl)-3b,4,4a,5-tetrahydro-1H-cyclopropa[3,4]cyclopenta[1,2-c]pyrazol-1-yl)ethanone] |
| 2.41 nM | Cc1c(Cl)cccc1N1CCN(C(=O)Cn2nc(C(=O)N3CCC(O)C(C)C3)c3c2C[C@H]2C[C@@H]32)CC1 (stereo partly drawn) [Example 354, 1-(4-(3-chloro-2-methylphenyl)piperazin-1-yl)-2-((3bR,4aR)-3-(4-hydroxy-3-methylpiperidine-1-carbonyl)-3b,4,4a,5-tetrahydro-1H-cyclopropa[3,4]cyclopenta[1,2-c]pyrazol-1-yl)ethanone] |
| 1.17 nM | Cc1c(F)ccc(N2CCN(C(=O)Cn3nc(C(=O)N4CC[C@H](O)[C@@H](F)C4)c4c3CCCC4)CC2)c1C [Example 459, 1-(4-(4-fluoro-2,3-dimethylphenyl)piperazin-1-yl)-2-(3-((3S,4S)-3-fluoro-4-hydroxypiperidine-1-carbonyl)-4,5,6,7-tetrahydro-1H-indazol-1-yl)ethanone] |

Continued, compound first:

| SMILES | IC50 |
| --- | --- |
| Cc1cccc(N2CCN(C(=O)Cn3nc(C(=O)N4CCC5(CC4)COC(CO)C5)c4c3C[C@H]3C[C@@H]43)CC2)c1C (stereo partly drawn) [Example 268, 1-[4-(2,3-dimethylphenyl)piperazin-1-yl]-2-{(3bR,4aR)-3-[3-(hydroxymethyl)-2-oxa-8-azaspiro[4.5]decane-8-carbonyl]-3b,4,4a,5-tetrahydro-1H-cyclopropa[3,4]cyclopenta[1,2-c]pyrazol-1-yl}ethan-1-one] | 1.25 nM |
| Cc1cccc(N2CCN(C(=O)Cn3nc(C(=O)N4CC[C@H](O)[C@H](F)C4)c4c3CCC4C(F)F)CC2)c1C (single isomer, unassigned) [Example 14] | 43.8 nM |
| Cc1cccc(N2CCN(C(=O)Cn3nc(C(=O)N4CC[C@@H](N)[C@H](F)C4)c4c3CCC4)CC2)c1C [Example 207, [(3R,4R)-1-[1-[2-[4-(2,3-dimethylphenyl)piperazin-1-yl]-2-oxo-ethyl]-5,6-dihydro-4H-cyclopenta[c]pyrazole-3-carbonyl]-3-fluoro-4-piperidyl]ammonium;formate] | 28 nM |
| C[C@@H]1CN(C(=O)c2nn(CC(=O)N3CCN(c4ccc(C(F)(F)F)cc4)CC3)c3c2CCC3)C[C@H](C)O1 [Example 51, 2-{3-[(2R,6S)-2,6-dimethylmorpholine-4-carbonyl]-5,6-dihydrocyclopenta[c]pyrazol-1(4H)-yl}-1-{4-[4-(trifluoromethyl)phenyl]piperazin-1-yl}ethan-1-one] | 173 nM |
| Cc1cccc(N2CCN(C(=O)Cn3nc(C(=O)N4CCC5(CC4)CNC(=O)N5C)c4c3C[C@H]3C[C@@H]43)CC2)c1C [Example 227, 8-[(3bR,4aR)-1-{2-[4-(2,3-dimethylphenyl)piperazin-1-yl]-2-oxoethyl}-3b,4,4a,5-tetrahydro-1H-cyclopropa[3,4]cyclopenta[1,2-c]pyrazole-3-carbonyl]-1-methyl-1,3,8-triazaspiro[4.5]decan-2-one] | 2.19 nM |
| Cc1cccc(N2CCN(C(=O)Cn3nc(C(=O)N4CCC(S(C)(=O)=O)CC4)c4c3CCC4)CC2)c1C [Example 139, 1-[4-(2,3-dimethylphenyl)piperazin-1-yl]-2-{3-[4-(methylsulfonyl)piperidine-1-carbonyl]-5,6-dihydrocyclopenta[c]pyrazol-1(4H)-yl}ethan-1-one] | 6.98 nM |
| Cc1cccc(N2CCN(C(=O)Cn3nc(C(=O)N4CCOC(CO)C4)c4c3CCC4)CC2)c1C (stereo not drawn) [Example 156, 1-[4-(2,3-dimethylphenyl)piperazin-1-yl]-2-{3-[2-(hydroxymethyl)morpholine-4-carbonyl]-5,6-dihydrocyclopenta[c]pyrazol-1(4H)-yl}ethan-1-one] | 29.3 nM |
| Cc1cccc(N2CCN(C(=O)Cn3nc(C(=O)N4CC5(CCN(C)C5)C4)c4c3C[C@H]3C[C@@H]43)CC2)c1C [Example 243, 1-[4-(2,3-dimethylphenyl)piperazin-1-yl]-2-[(3bR,4aR)-3-(6-methyl-2,6-diazaspiro[3.4]octane-2-carbonyl)-3b,4,4a,5-tetrahydro-1H-cyclopropa[3,4]cyclopenta[1,2-c]pyrazol-1-yl]ethan-1-one] | 160 nM |
| Cc1cccc(N2CCN(C(=O)Cn3nc(C(=O)N4CCC(CCO)C4)c4c3CCC4)CC2)c1C (stereo not drawn) [Example 154, 1-[4-(2,3-dimethylphenyl)piperazin-1-yl]-2-{3-[3-(2-hydroxyethyl)pyrrolidine-1-carbonyl]-5,6-dihydrocyclopenta[c]pyrazol-1(4H)-yl}ethan-1-one] | 2.99 nM |
| C[C@@H]1CN(C(=O)c2nn(CC(=O)N3CCN(c4ccccc4C4CC4)CC3)c3c2CCC3)C[C@H](C)O1 [Example 59, 1-[4-(2-cyclopropylphenyl)piperazin-1-yl]-2-{3-[(2R,6S)-2,6-dimethylmorpholine-4-carbonyl]-5,6-dihydrocyclopenta[c]pyrazol-1(4H)-yl}ethan-1-one] | 319 nM |
| Cc1ccc(N2CCN(C(=O)Cn3nc(C(=O)N4C[C@@H](C)O[C@@H](C)C4)c4c3CCC4)CC2)c(C)c1 [Example 50, 2-{3-[(2R,6S)-2,6-dimethylmorpholine-4-carbonyl]-5,6-dihydrocyclopenta[c]pyrazol-1(4H)-yl}-1-[4-(2,4-dimethylphenyl)piperazin-1-yl]ethan-1-one] | 15.1 nM |
| Cc1cccc(N2CCN(C(=O)Cn3nc(C(=O)N4CCCC4)c4c3CCOC4)CC2)c1C [Example 4, 1-[4-(2,3-dimethylphenyl)piperazin-1-yl]-2-[3-(pyrrolidine-1-carbonyl)-6,7-dihydro-4H-pyrano[4,3-c]pyrazol-1-yl]ethanone] | 165 nM |
| Cc1cccc(N2CCN(C(=O)Cn3nc(C(=O)N4CC5C(N)C5C4)c4c3CCC4)CC2)c1C (stereo not drawn) [Example 196, 2-[3-(6-amino-3-azabicyclo[3.1.0]hexane-3-carbonyl)-5,6-dihydrocyclopenta[c]pyrazol-1(4H)-yl]-1-[4-(2,3-dimethylphenyl)piperazin-1-yl]ethan-1-one] | 103 nM |
| Cc1cccc(N2CCN(C(=O)Cn3nc(C(=O)N4CCC(O)C(F)(F)C4)c4c3CCC4)CC2)c1C (stereo not drawn) [Example 205, 2-[3-(3,3-difluoro-4-hydroxy-piperidine-1-carbonyl)-5,6-dihydro-4H-cyclopenta[c]pyrazol-1-yl]-1-[4-(2,3-dimethylphenyl)piperazin-1-yl]ethanone] | 17.1 nM |
| Cc1c(N2CCN(C(=O)Cn3nc(C(=O)N4C[C@@H](C)O[C@@H](C)C4)c4c3CCC4)CC2)ccc(F)c1F [Example 49, 1-[4-(3,4-difluoro-2-methylphenyl)piperazin-1-yl]-2-{3-[(2R,6S)-2,6-dimethylmorpholine-4-carbonyl]-5,6-dihydrocyclopenta[c]pyrazol-1(4H)-yl}ethan-1-one] | 13.5 nM |
| Cc1cccc(N2CCN(C(=O)Cn3nc(C(=O)N4CCC(C(F)F)C4)c4c3C[C@H]3C[C@@H]43)CC2)c1C (stereo partly drawn) [Example 233, 2-{(3bR,4aR)-3-[3-(difluoromethyl)pyrrolidine-1-carbonyl]-3b,4,4a,5-tetrahydro-1H-cyclopropa[3,4]cyclopenta[1,2-c]pyrazol-1-yl}-1-[4-(2,3-dimethylphenyl)piperazin-1-yl]ethan-1-one] | 2.33 nM |
